Data from patent publication EP3815699A1, “NEW MEANS AND METHODS FOR THERAPY AND DIAGNOSIS OF […]” (Technische Universität München, priority 2019, dated 2021).
Entries after “also recorded” stand apart in the source; their conditions may differ. Like-named read-outs stand apart in the source and are kept apart here.

Legend:
Assay type in all cases: cell-based
HAdV-C5 wt [1] = assay: Immunofluorescence count of E2A and capsid expressing infected cells (Fig. 1A)
Protocol: (§1) • Figure 1: ATO efficiently reduces HAdV infectivity (cf. Example 1). H1299 cells were infected with HAdV-C5 wt at a multiplicity of 5 FFU/cell, treated with the depicted concentrations of ATO at 2 h.p.i., fixed 48 h.p.i. with 4 % PFA and double labeled with mAb B6-8 (α-E2A) and pAb L133 (α-Capsid). Primary antibodies were detected using Alexa488 (E2A, green) and Alexa568 (Capsid, red) conjugated secondary antibodies. (A) The number of E2A and Capsid expressing cells, respectively, was counted in n=40 overview pictures (not shown), normalized to untreated, infected cells, and represented in bar charts. Bar charts represent average values and standard deviations based on four independent experiments. (B) H1299 cells were infected with HAdV-C5 at a multiplicity of 20 FFU/cell, and treated with the depicted concentrations of ATO at 2 h.p.i.. Viral particles were harvested 48 h.p.i. and virus yield was determined by quantitative E2A immunofluorescence staining in 293 cells. Bar charts represent average values and standard deviations based on three independent experiments. Statistically significant differences were determined using a two-sided Welch's t-test. *: P ≤ 0.05, **: P ≤ 0.01, ***: P ≤ 0.001, ****: P ≤ 0.0001. • Figure 2: ATO induces a dose dependent reduction of HAdV infectivity with minor effects on cell viability (cf. Example 2). […] 24 or 48 h.p.i., cell viability was assessed using the Promega CellTiter-Blue Cell Viability Assay system, prior to fixation with 4 % PFA and cells were double labeled with mAb B6-8 (α-E2A) and pAb L133 (α-Capsid). Primary antibodies were detected using Alexa488 (E2A, green) and Alexa647 (Capsid, red) conjugated secondary antibodies. Fluorescence intensity was measured using a Tecan Infinite 200M plate reader using an excitation and emission wavelength of 488 and 520nm for Alexa488 and 640 and 670nm for Alexa647 respectively. Fluorescence intensity was normalized to untreated, infected cells at 48h p.i.. xy charts represent average values and standard deviations based on three independent experiments measured in triplicates. (B) H1299 cells were infected with an HAdV-C5 delta E3 virus, encoding a CMV promoter driven eGFP expression cassette, at a multiplicity of 20FFU/cell and treated with the depicted concentrations of ATO at 2h p.i.; 24 or 48 h p.i. cell viability was assessed using the Promega CellTiter-Blue Cell Viability Assay system, and GFP fluorescence intensity was measured using a Tecan Infinite 200M plate reader using an excitation and emission wavelength of 488 and 520nm. Fluorescence intensity was normalized to untreated, infected cells at 48h p.i.; xy charts represent average values and standard deviations based on three independent experiments measured in triplicates. […]

HAdV-C5 = assay: Virus yield / progeny production by quantitative E2A immunofluorescence staining in 293 cells (Fig. 1B)
Protocol: as §1, with “triplicates.” for “triplicates. (B) H1299 cells were infected with an HAdV-C5 delta E3 virus, encoding a CMV promoter driven eGFP expression cassette, at a multiplicity of 20FFU/cell and treated with the depicted concentrations of ATO at 2h p.i.; 24 or 48 h p.i. cell viability was assessed using the Promega CellTiter-Blue Cell Viability Assay system, and GFP fluorescence intensity was measured using a Tecan Infinite 200M plate reader using an excitation and emission wavelength of 488 and 520nm. Fluorescence intensity was normalized to untreated, infected cells at 48h p.i.; xy charts represent average values and standard deviations based on three independent experiments measured in triplicates.”

HAdV-C5 wt [2] = assay: Tecan plate reader measurement of E2A and capsid immunofluorescence intensity in infected H1299 cells (Fig. 2A)
Protocol: • Figure 1: ATO efficiently reduces HAdV infectivity (cf. Example 1). H1299 cells were infected with HAdV-C5 wt at a multiplicity of 5 FFU/cell, treated with the depicted concentrations of ATO at 2 h.p.i., fixed 48 h.p.i. with 4 % PFA and double labeled with mAb B6-8 (α-E2A) and pAb L133 (α-Capsid). Primary antibodies were detected using Alexa488 (E2A, green) and Alexa568 (Capsid, red) conjugated secondary antibodies. (A) The number of E2A and Capsid expressing cells, respectively, was counted in n=40 overview pictures (not shown), normalized to untreated, infected cells, and represented in bar charts. Bar charts represent average values and standard deviations based on four independent experiments. (B) H1299 cells were infected with HAdV-C5 at a multiplicity of 20 FFU/cell, and treated with the depicted concentrations of ATO at 2 h.p.i.. Viral particles were harvested 48 h.p.i. and virus yield was determined by quantitative E2A immunofluorescence staining in 293 cells. Bar charts represent average values and standard deviations based on three independent experiments. Statistically significant differences were determined using a two-sided Welch's t-test. *: P ≤ 0.05, **: P ≤ 0.01, ***: P ≤ 0.001, ****: P ≤ 0.0001. • Figure 2: ATO induces a dose dependent reduction of HAdV infectivity with minor effects on cell viability (cf. Example 2). (A) H1299 cells were infected with HAdV-C5 wt at a multiplicity of 20 FFU/cell and treated with the depicted concentrations of ATO at 2 h.p.i.. 24 or 48 h.p.i., cell viability was assessed using the Promega CellTiter-Blue Cell Viability Assay system, prior to fixation with 4 % PFA and cells were double labeled with mAb B6-8 (α-E2A) and pAb L133 (α-Capsid). Primary antibodies were detected using Alexa488 (E2A, green) and Alexa647 (Capsid, red) conjugated secondary antibodies. Fluorescence intensity was measured using a Tecan Infinite 200M plate reader using an excitation and emission wavelength of 488 and 520nm for Alexa488 and 640 and 670nm for Alexa647 respectively. Fluorescence intensity was normalized to untreated, infected cells at 48h p.i.. xy charts represent average values and standard deviations based on three independent experiments measured in triplicates. (B) H1299 cells were infected with an HAdV-C5 delta E3 virus, encoding a CMV promoter driven eGFP expression cassette, at a multiplicity of 20FFU/cell and treated with the depicted concentrations of ATO at 2h p.i.; 24 or 48 h p.i. cell viability was assessed using the Promega CellTiter-Blue Cell Viability Assay system, and GFP fluorescence intensity was measured using a Tecan Infinite 200M plate reader using an excitation and emission wavelength of 488 and 520nm. Fluorescence intensity was normalized to untreated, infected cells at 48h p.i.; xy charts represent average values and standard deviations based on three independent experiments measured in triplicates. (C) H1299 cells were infected with an eGFP expressing HAdV-C5 based first generation adenoviral vector at a multiplicity of 20 FFU/cell and treated with the depicted concentrations of ATO at 2h p.i.; 24 or 48h p.i., cell viability was assessed using the Promega CellTiter-Blue Cell Viability Assay system, and GFP fluorescence intensity was measured using a Tecan Infinite 200M plate reader using an excitation and emission wavelength of 488 and 520nm. Fluorescence intensity was normalized to untreated, infected cells at 48h p..i.; xy charts represent average values and standard deviations based on three independent experiments measured in triplicates. (D) A549 cells were infected with an HAdV-C5 delta E3 virus, encoding a CMV promoter driven eGFP expression cassette, at a multiplicity of 20FFU/cell and treated with the depicted concentrations of ATO at 2h p.i.. GFP-fluorescence, as well as cell growth via phase contrast-imaging was assessed for 48 h with a 2h increment using an IncuCyte S3 Live-Cell Analysis System. […]

[3] = system: HAdV-C5 delta E3 virus, encoding a CMV promoter driven eGFP expression cassette; assay: GFP fluorescence of replication competent GFP-expressing virus in H1299 cells (Fig. 2B)
Protocol: • Figure 1: ATO efficiently reduces HAdV infectivity (cf. Example 1). H1299 cells were infected with HAdV-C5 wt at a multiplicity of 5 FFU/cell, treated with the depicted concentrations of ATO at 2 h.p.i., fixed 48 h.p.i. with 4 % PFA and double labeled with mAb B6-8 (α-E2A) and pAb L133 (α-Capsid). Primary antibodies were detected using Alexa488 (E2A, green) and Alexa568 (Capsid, red) conjugated secondary antibodies. (A) The number of E2A and Capsid expressing cells, respectively, was counted in n=40 overview pictures (not shown), normalized to untreated, infected cells, and represented in bar charts. Bar charts represent average values and standard deviations based on four independent experiments. (B) H1299 cells were infected with HAdV-C5 at a multiplicity of 20 FFU/cell, and treated with the depicted concentrations of ATO at 2 h.p.i.. Viral particles were harvested 48 h.p.i. and virus yield was determined by quantitative E2A immunofluorescence staining in 293 cells. Bar charts represent average values and standard deviations based on three independent experiments. Statistically significant differences were determined using a two-sided Welch's t-test. *: P ≤ 0.05, **: P ≤ 0.01, ***: P ≤ 0.001, ****: P ≤ 0.0001. • Figure 2: ATO induces a dose dependent reduction of HAdV infectivity with minor effects on cell viability (cf. Example 2). (A) H1299 cells were infected with HAdV-C5 wt at a multiplicity of 20 FFU/cell and treated with the depicted concentrations of ATO at 2 h.p.i.. 24 or 48 h.p.i., cell viability was assessed using the Promega CellTiter-Blue Cell Viability Assay system, prior to fixation with 4 % PFA and cells were double labeled with mAb B6-8 (α-E2A) and pAb L133 (α-Capsid). Primary antibodies were detected using Alexa488 (E2A, green) and Alexa647 (Capsid, red) conjugated secondary antibodies. Fluorescence intensity was measured using a Tecan Infinite 200M plate reader using an excitation and emission wavelength of 488 and 520nm for Alexa488 and 640 and 670nm for Alexa647 respectively. Fluorescence intensity was normalized to untreated, infected cells at 48h p.i.. xy charts represent average values and standard deviations based on three independent experiments measured in triplicates. (B) H1299 cells were infected with an HAdV-C5 delta E3 virus, encoding a CMV promoter driven eGFP expression cassette, at a multiplicity of 20FFU/cell and treated with the depicted concentrations of ATO at 2h p.i.; 24 or 48 h p.i. cell viability was assessed using the Promega CellTiter-Blue Cell Viability Assay system, and GFP fluorescence intensity was measured using a Tecan Infinite 200M plate reader using an excitation and emission wavelength of 488 and 520nm. Fluorescence intensity was normalized to untreated, infected cells at 48h p.i.; xy charts represent average values and standard deviations based on three independent experiments measured in triplicates. (C) H1299 cells were infected with an eGFP expressing HAdV-C5 based first generation adenoviral vector at a multiplicity of 20 FFU/cell and treated with the depicted concentrations of ATO at 2h p.i.; 24 or 48h p.i., cell viability was assessed using the Promega CellTiter-Blue Cell Viability Assay system, and GFP fluorescence intensity was measured using a Tecan Infinite 200M plate reader using an excitation and emission wavelength of 488 and 520nm. […]

[4] = ATO concentration not stated at the place

Substance: arsenic trioxide [ATO]
- reduction of early viral DNA binding protein E2A expression (HAdV-C5 wt [1]; 1µM ATO, H1299, 5 FFU/cell, ATO at 2 h.p.i., 48 h.p.i.): 40%
- inhibition of late capsid protein expression (HAdV-C5 wt [1]; 2.0µM ATO, H1299, 5 FFU/cell, ATO at 2 h.p.i., 48 h.p.i.): ~80%
- reduction in cells expressing E2A (HAdV-C5 wt [1]; [4]): up to 40%
- reduction in cells expressing capsid (HAdV-C5 wt [1]; [4]): up to 80%
- reduction of virus yield (HAdV-C5; 1µM ATO, H1299, 20 FFU/cell, harvested 48 h.p.i.): 80%
- virus particle synthesis / virus yield (HAdV-C5; 2µM ATO, compared to non-treated infected control cells): abolished; also recorded: completely abolishing
- reduction in virus yield (HAdV-C5; ATO concentration not given): 80%
- reduction of capsid expression (HAdV-C5 wt [2]; 2µM ATO, 48h p.i.): 40%
- reduction of E2A protein expression (HAdV-C5 wt [2]; 4µM ATO, 24h p.i.): more than 50%
- E2A expression compared to the untreated control (HAdV-C5 wt [2]; 4µM ATO, 24h p.i., Fig. 2A): less than 50%
- capsid detection / capsid expression (HAdV-C5 wt [2]; 4µM ATO, 48h p.i.): complete loss
- E2A expression reduced to (HAdV-C5 wt [2]; 4µM ATO, 48h p.i., remaining expression): 60%
- HAdV E2A protein expression (HAdV-C5 wt [2]; 8µM ATO, 24h p.i., Fig. 2A): completely block; also recorded: completely blocking
- E2A expression (HAdV-C5 wt [2]; 8µM ATO, 48h p.i.): not detectable; also recorded: completely blocking
- reduction of E2A protein expression (HAdV-C5 wt [2]; 8µM ATO, 48h p.i.): up to 60%
- IC50 (HAdV-C5 wt [2]; 24h p.i., Fig. 2A, read-out: IC50 (E2A expression)): 1.91 µM
- IC50 (HAdV-C5 wt [2]; 48h p.i., Fig. 2A, read-out: IC50 (E2A expression)): 4.06 µM
- IC50 (HAdV-C5 wt [2]; 48h p.i., Fig. 2A, read-out: IC50 (capsid expression)): 2.07 µM
- inhibition of adenoviral infection ([3]; 2µM ATO, 48h p.i.): more than 50%
- inhibition of adenoviral infection ([3]; 4µM ATO, 24h p.i.): up to 75%
